Assay results reported in patent publication US7901700B2, “Bifenthrin/acetamiprid compositions for control of general household pests” (FMC Corporation, priority 2004, dated 2011).

How the values were obtained:
Red Imported Fire Ant = test: Red imported fire ant knockdown and mortality, spray chamber application; format: in vivo, Solenopsis invicta
Protocol: The compositions of the present invention were tested for red imported fire ant activity in the following manner:
(§1) Test compositions made up of TALSTARONE® MULTI-INSECTICIDE and a 70% wettable powder of acetamiprid in distilled water were prepared that provided appropriate rates of application of combinations of bifenthrin and acetamiprid, as well as bifenthrin and acetamiprid alone.
(§2) The spray chamber was then calibrated to deliver the treatment solution at the desired volume and pressure over the desired area on the chamber shelf. Spray chamber shelf height was adjusted to approximately 18 inches from the spray tip. The shelf was then covered with aluminum foil and the center of the shelf from front-to-back and end-to-end was determined. The red imported fire ants to be treated were collected and placed in screened 16 oz paper cups. The paper cups were placed onto the aluminum foil on the spray chamber shelf. The sprayer was activated and the test compound was applied to each paper cup interior. Red imported fire ant knockdown and mortality were measured.

Bed Bugs = test: Bed bug mortality, spray chamber application; format: in vivo
Protocol: The compositions of the present invention were tested for bed bug activity in the following manner:
as §1
as §2, with “approximately 10.5” for “approximately 18”, “The bed bugs” for “The red imported fire ants”, “interior. Bed bug” for “interior. Red imported fire ant knockdown and”, “mortality was” for “mortality were”

House Flies = test: House fly knockdown and mortality, hand held sprayer application; format: in vivo
Protocol: The compositions of the present invention were tested for house fly activity in the following manner:
as §1
A DeVilbiss hand held sprayer was used to deliver the treatment solution at the desired volume and pressure. The house flies to be treated were collected and placed in screened 16 oz paper cups. The hand held sprayer was activated and the test compound was applied to each paper cup interior. House fly knockdown and mortality were measured.

German cockroach = German cockroach knockdown and mortality, spray chamber application; format: in vivo
Protocol: The compositions of the present invention were tested for German cockroach activity in the following manner:
as §1
The spray chamber was then calibrated to deliver the treatment solution at the desired volume and pressure over the desired area on the chamber shelf. Spray chamber shelf height was adjusted to approximately 18 inches from the spray tip. The shelf was then covered with aluminum foil and the center of the shelf from front-to-back and end-to-end was determined. A desired number of 4.0″ sieve circles were marked on the aluminum foil with a permanent marker. The inside of a desired number of PVC rings were coated with a petroleum jelly/mineral oil mixture (1:2 ratio). The PVC rings were place on the sieve circles. 10 male German cockroaches were placed inside each PVC ring. The sprayer was activated and the test compound was applied to each PVC ring interior. German cockroach knockdown and mortality were measured.

[1] = Rate of Appln. 300 PPM (0.03% by weight)
[2] = Rate of Appln. 600 PPM (0.06% by weight)
[3] = Rate of Appln. 200 PPM (0.02% by weight)
[4] = Rate of Appln. 10 PPM (0.001% by weight)
[5] = Rate of Appln. 50 PPM (0.005% by weight)
[6] = Rate of Appln. 125 PPM (0.0125% by weight)
[7] = Rate of Appln. 250 PPM (0.025% by weight)
[8] = Rate of Appln. 500 PPM (0.05% by weight)
[9] = Rate of Appln. 1000 PPM (0.10% by weight)
[10] = Rate of Appln. 100 PPM (0.01% by weight)

Cc1c(COC(=O)[C@@H]2[C@H](/C=C(\Cl)C(F)(F)F)C2(C)C)cccc1-c1ccccc1 (racemic) [A, 2-methylbiphenyl-3-ylmethyl(Z)-(1RS)-cis-3-(2-chloro-3,3,3-trifluoroprop-1-enyl)-2,2-dimethylcyclopropanecarboxylate]
Knockdown Rate @ 10 minutes (Red Imported Fire Ant; [1]): 63% | Knockdown Rate @ 15 minutes (Red Imported Fire Ant; [1]): 100% | Knockdown Rate @ 30 minutes (Red Imported Fire Ant; [1]): 100% | Mortality Rate @ 60 minutes (Red Imported Fire Ant; [1]): 100% | Mortality Rate @ 120 minutes (Red Imported Fire Ant; [1]): 100% | Mortality Rate @ 240 minutes (Red Imported Fire Ant; [1]): 100% | Knockdown Rate @ 10 minutes (Red Imported Fire Ant; [2]): 78% | Knockdown Rate @ 15 minutes (Red Imported Fire Ant; [2]): 100% | Knockdown Rate @ 30 minutes (Red Imported Fire Ant; [2]): 100% | Mortality Rate @ 60 minutes (Red Imported Fire Ant; [2]): 100% | Mortality Rate @ 120 minutes (Red Imported Fire Ant; [2]): 100% | Mortality Rate @ 240 minutes (Red Imported Fire Ant; [2]): 100% | Mortality Rate @ 2 hours (Bed Bugs; [3]): 85% | Mortality Rate @ 1 day (Bed Bugs; [3]): 100% | Mortality Rate @ 2 hours (Bed Bugs; [2]): 75% | Mortality Rate @ 1 day (Bed Bugs; [2]): 100% | Knockdown Rate @ 15 minutes (House Flies; [4]): 0% | Knockdown Rate @ 30 minutes (House Flies; [4]): 0% | Knockdown Rate @ 60 minutes (House Flies; [4]): 19% | Knockdown Rate @ 120 minutes (House Flies; [4]): 19% | Knockdown Rate @ 240 minutes (House Flies; [4]): 48% | Mortality Rate @ 1 day (House Flies; [4]): 3% | Knockdown Rate @ 15 minutes (House Flies; [5]): 0% | Knockdown Rate @ 30 minutes (House Flies; [5]): 19% | Knockdown Rate @ 60 minutes (House Flies; [5]): 59% | Knockdown Rate @ 120 minutes (House Flies; [5]): 63% | Knockdown Rate @ 240 minutes (House Flies; [5]): 100% | Mortality Rate @ 1 day (House Flies; [5]): 63% | Knockdown Rate @ 10 minutes (German cockroach; [4]): 0% | Knockdown Rate @ 15 minutes (German cockroach; [4]): 3% | Knockdown Rate @ 30 minutes (German cockroach; [4]): 23% | Mortality Rate @ 60 minutes (German cockroach; [4]): 40% | Mortality Rate @ 240 minutes (German cockroach; [4]): 50% | Knockdown Rate @ 10 minutes (German cockroach; [5]): 0% | Knockdown Rate @ 15 minutes (German cockroach; [5]): 0% | Knockdown Rate @ 30 minutes (German cockroach; [5]): 0% | Mortality Rate @ 60 minutes (German cockroach; [5]): 38% | Mortality Rate @ 240 minutes (German cockroach; [5]): 60% | Knockdown Rate @ 10 minutes (German cockroach; [3]): 0% | Knockdown Rate @ 15 minutes (German cockroach; [3]): 3% | Knockdown Rate @ 30 minutes (German cockroach; [3]): 45% | Mortality Rate @ 60 minutes (German cockroach; [3]): 100% | Mortality Rate @ 120 minutes (German cockroach; [3]): 100% | Mortality Rate @ 240 minutes (German cockroach; [3]): 100% | Knockdown Rate @ 10 minutes (German cockroach; [2]): 0% | Knockdown Rate @ 15 minutes (German cockroach; [2]): 8% | Knockdown Rate @ 30 minutes (German cockroach; [2]): 60% | Mortality Rate @ 60 minutes (German cockroach; [2]): 100% | Mortality Rate @ 120 minutes (German cockroach; [2]): 100% | Mortality Rate @ 240 minutes (German cockroach; [2]): 100%

C/C(=N\C#N)N(C)Cc1ccc(Cl)nc1 [B, (E)-N^1-[(6-chloro-3-pyridyl)methyl]-N^2-cyano-N^1-methylacetamidine]
Knockdown Rate @ 10 minutes (Red Imported Fire Ant; [6]): 0% | Knockdown Rate @ 15 minutes (Red Imported Fire Ant; [6]): 0% | Knockdown Rate @ 30 minutes (Red Imported Fire Ant; [6]): 10% | Mortality Rate @ 60 minutes (Red Imported Fire Ant; [6]): 5% | Mortality Rate @ 120 minutes (Red Imported Fire Ant; [6]): 65% | Mortality Rate @ 240 minutes (Red Imported Fire Ant; [6]): 90% | Knockdown Rate @ 10 minutes (Red Imported Fire Ant; [7]): 10% | Knockdown Rate @ 15 minutes (Red Imported Fire Ant; [7]): 3% | Knockdown Rate @ 30 minutes (Red Imported Fire Ant; [7]): 5% | Mortality Rate @ 60 minutes (Red Imported Fire Ant; [7]): 13% | Mortality Rate @ 120 minutes (Red Imported Fire Ant; [7]): 98% | Mortality Rate @ 240 minutes (Red Imported Fire Ant; [7]): 100% | Knockdown Rate @ 10 minutes (Red Imported Fire Ant; [8]): 0% | Knockdown Rate @ 15 minutes (Red Imported Fire Ant; [8]): 15% | Knockdown Rate @ 30 minutes (Red Imported Fire Ant; [8]): 15% | Mortality Rate @ 60 minutes (Red Imported Fire Ant; [8]): 60% | Mortality Rate @ 120 minutes (Red Imported Fire Ant; [8]): 100% | Mortality Rate @ 240 minutes (Red Imported Fire Ant; [8]): 100% | Mortality Rate @ 2 hours (Bed Bugs; [7]): 30% | Mortality Rate @ 1 day (Bed Bugs; [7]): 95% | Mortality Rate @ 2 hours (Bed Bugs; [8]): 60% | Mortality Rate @ 1 day (Bed Bugs; [8]): 100% | Mortality Rate @ 2 hours (Bed Bugs; [9]): 95% | Mortality Rate @ 1 day (Bed Bugs; [9]): 100% | Knockdown Rate @ 15 minutes (House Flies; [10]): 47% | Knockdown Rate @ 30 minutes (House Flies; [10]): 47% | Knockdown Rate @ 60 minutes (House Flies; [10]): 53% | Knockdown Rate @ 120 minutes (House Flies; [10]): 41% | Knockdown Rate @ 240 minutes (House Flies; [10]): 53% | Mortality Rate @ 1 day (House Flies; [10]): 16% | Knockdown Rate @ 15 minutes (House Flies; [3]): 69% | Knockdown Rate @ 30 minutes (House Flies; [3]): 86% | Knockdown Rate @ 60 minutes (House Flies; [3]): 72% | Knockdown Rate @ 120 minutes (House Flies; [3]): 72% | Knockdown Rate @ 240 minutes (House Flies; [3]): 78% | Mortality Rate @ 1 day (House Flies; [3]): 28% | Knockdown Rate @ 10 minutes (German cockroach; [5]): 0% | Knockdown Rate @ 15 minutes (German cockroach; [5]): 13% | Knockdown Rate @ 30 minutes (German cockroach; [5]): 38% | Mortality Rate @ 60 minutes (German cockroach; [5]): 53% | Mortality Rate @ 240 minutes (German cockroach; [5]): 63% | Knockdown Rate @ 10 minutes (German cockroach; [10]): 0% | Knockdown Rate @ 15 minutes (German cockroach; [10]): 8% | Knockdown Rate @ 30 minutes (German cockroach; [10]): 38% | Mortality Rate @ 60 minutes (German cockroach; [10]): 58% | Mortality Rate @ 240 minutes (German cockroach; [10]): 63% | Knockdown Rate @ 10 minutes (German cockroach; [7]): 10% | Knockdown Rate @ 15 minutes (German cockroach; [7]): 35% | Knockdown Rate @ 30 minutes (German cockroach; [7]): 75% | Mortality Rate @ 60 minutes (German cockroach; [7]): 88% | Mortality Rate @ 120 minutes (German cockroach; [7]): 90% | Mortality Rate @ 240 minutes (German cockroach; [7]): 83% | Knockdown Rate @ 10 minutes (German cockroach; [8]): 8% | Knockdown Rate @ 15 minutes (German cockroach; [8]): 45% | Knockdown Rate @ 30 minutes (German cockroach; [8]): 88% | Mortality Rate @ 60 minutes (German cockroach; [8]): 80% | Mortality Rate @ 120 minutes (German cockroach; [8]): 98% | Mortality Rate @ 240 minutes (German cockroach; [8]): 80% | Knockdown Rate @ 10 minutes (German cockroach; [9]): 38% | Knockdown Rate @ 15 minutes (German cockroach; [9]): 75% | Knockdown Rate @ 30 minutes (German cockroach; [9]): 93% | Mortality Rate @ 60 minutes (German cockroach; [9]): 100% | Mortality Rate @ 120 minutes (German cockroach; [9]): 98% | Mortality Rate @ 240 minutes (German cockroach; [9]): 80%
